Source: PubChem BioAssay AID292 (DTP/NCI, 2004)
Where “and” joins values, the source holds several entries; their conditions need not be identical. Equal values may be shown once. Toxic doses and inconclusive results are not listed. The calls were made as follows: active = survival T/C of 150% or more; inactive = T/C below 125% in these data.

Test system: B6C3F1 mice, ip Sarcoma M5076, median survival T/C
Test: NCI In Vivo Anticancer Drug Screen. Data for tumor model Sarcoma M5076 (intraperitoneal) in B6C3F1 mice
Conditions: endpoint: median survival time, higher = longer survival
Outline: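 Tumour cells were transplanted into mice, compound or vehicle was given, survival of both groups was followed, and the treated figure was expressed over the control figure.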

[1] = dose: 150.0 mg/kg/injection, schedule: Q04DX004 (ip), vehicle: saline with Tween-80
[2] = dose: 300.0 mg/kg/injection, schedule: Q04DX004 (ip), vehicle: saline with Tween-80
[3] = dose: 25.0 mg/kg/injection, schedule: Q04DX004 (ip), vehicle: water
[4] = dose: 50.0 mg/kg/injection, schedule: Q04DX004 (ip), vehicle: water
[5] = dose: 100.0 mg/kg/injection, schedule: Q04DX004 (ip), vehicle: water
[6] = dose: 100.0 mg/kg/injection, schedule: Q04DX004 (ip), vehicle: saline with Tween-80
[7] = dose: 200.0 mg/kg/injection, schedule: Q04DX004 (ip), vehicle: saline with Tween-80
[8] = dose: 400.0 mg/kg/injection, schedule: Q04DX004 (ip), vehicle: saline with Tween-80
[9] = dose: 25.0 mg/kg/injection, schedule: Q04DX004 (ip), vehicle: saline with Tween-80
[10] = dose: 50.0 mg/kg/injection, schedule: Q04DX004 (ip), vehicle: saline with Tween-80
[11] = dose: 25.0 mg/kg/injection, schedule: Q04DX004 (ip), vehicle: suspension in saline
[12] = dose: 50.0 mg/kg/injection, schedule: Q04DX004 (ip), vehicle: suspension in saline

Measured: T/C

N=C1C=CC2C(=Nc3ccccc3[N+]2=O)N1Cc1ccncc1 (configuration not stated)
inactive: dose: 18.75 mg/kg/injection, schedule: Q04DX004 (ip), vehicle: saline with Tween-80 95 % of control | dose: 37.5 mg/kg/injection, schedule: Q04DX004 (ip), vehicle: saline with Tween-80 93 % of control | dose: 75.0 mg/kg/injection, schedule: Q04DX004 (ip), vehicle: saline with Tween-80 91 % of control | [1] 87 % of control | [2] 87 % of control

O=C1NCC(Br)C(=O)N1 (configuration not stated)
inactive: dose: 50.0 mg/kg/injection, schedule: Q04DX004 (ip), vehicle: saline + Tween-80 + alcohol 95 % of control | dose: 100.0 mg/kg/injection, schedule: Q04DX004 (ip), vehicle: saline + Tween-80 + alcohol 97 % of control | dose: 200.0 mg/kg/injection, schedule: Q04DX004 (ip), vehicle: saline + Tween-80 + alcohol 94 % of control | dose: 400.0 mg/kg/injection, schedule: Q04DX004 (ip), vehicle: saline + Tween-80 + alcohol 120 % of control

N#Cc1ccc(NN=O)nc1
active: [3] 152 % of control | [4] 160 % of control and 177 % of control | dose: 83.0 mg/kg/injection, schedule: Q04DX004 (ip), vehicle: water 182 % of control | dose: 139.0 mg/kg/injection, schedule: Q04DX004 (ip), vehicle: water 200 % of control
inactive: dose: 6.25 mg/kg/injection, schedule: Q04DX004 (ip), vehicle: water 124 % of control | dose: 6.5 mg/kg/injection, schedule: Q04DX004 (ip), vehicle: water 116 % of control | [5] 118 % of control

CC1=CC(=NN=c2cc(C)n([O-])c(C)c2)C=C(C)[N+]1=O
inactive: [6] 122 % of control | [7] 121 % of control | [8] 98 % of control

Cc1cc2cc3cc(C)c(N)cc3nc2cc1N
inactive: [9] 110 % of control | [10] 117 % of control | [6] 113 % of control

NCCCNCCCCNC(=O)C(O)NC(=O)CC(O)CCCCN=C(N)N (configuration not stated)
inactive: dose: 50.0 mg/kg/injection, schedule: Q04DX004 (ip), vehicle: saline 117 % of control | dose: 100.0 mg/kg/injection, schedule: Q04DX004 (ip), vehicle: saline 115 % of control

CC1=NN(c2ccccc2)C(=O)C1=Nc1c(C)[nH]n(-c2ccccc2)c1=O
inactive: [10] 89 % of control | [6] 92 % of control | [7] 97 % of control | [8] 94 % of control

Nc1ccc(S(=O)(=O)Nc2cnc3c(Cl)cccc3n2)cc1
inactive: dose: 100.0 mg/kg/injection, schedule: Q04DX004 (ip), vehicle: DMSO 104 % of control | dose: 200.0 mg/kg/injection, schedule: Q04DX004 (ip), vehicle: DMSO 102 % of control | dose: 400.0 mg/kg/injection, schedule: Q04DX004 (ip), vehicle: DMSO 93 % of control

C=C(C)C1C2CC3(C)C4(CO4)C4OC4C3(O)C1C(=O)O2 (configuration not stated)
inactive: dose: 0.25 mg/kg/injection, schedule: Q04DX004 (ip), vehicle: Klucel (hydroxypropylcellulose) (HPC) 96 % of control | dose: 0.5 mg/kg/injection, schedule: Q04DX004 (ip), vehicle: Klucel (hydroxypropylcellulose) (HPC) 112 % of control | dose: 1.0 mg/kg/injection, schedule: Q04DX004 (ip), vehicle: Klucel (hydroxypropylcellulose) (HPC) 100 % of control

O=CC(S)CO (configuration not stated)
inactive: [11] 108 % of control | [12] 104 % of control | dose: 200.0 mg/kg/injection, schedule: Q04DX004 (ip), vehicle: suspension in saline 118 % of control | dose: 400.0 mg/kg/injection, schedule: Q04DX004 (ip), vehicle: suspension in saline 113 % of control

CCC(CC)C(=O)NCC(=O)NO
inactive: [9] 93 % of control | [10] 93 % of control | [6] 93 % of control | [7] 97 % of control | [8] 92 % of control

COc1cc([C@@H]2c3cc4c(cc3[C@@H](OC3OC5COC(C)OC5C(O)C3O)[C@H]3COC(=O)[C@H]23)OCO4)cc(OC)c1O (some centres not stated)
active: dose: 4.0 mg/kg/injection, schedule: Q04DX005 (ip), vehicle: saline 150 % of control | dose: 8.0 mg/kg/injection, schedule: Q04DX004 (ip), vehicle: saline 157 % of control | dose: 8.0 mg/kg/injection, schedule: Q04DX005 (ip), vehicle: saline 154 % of control | dose: 16.0 mg/kg/injection, schedule: Q04DX004 (ip), vehicle: saline 153 % of control | dose: 16.0 mg/kg/injection, schedule: Q04DX005 (ip), vehicle: saline 198 % of control | dose: 32.0 mg/kg/injection, schedule: Q04DX004 (ip), vehicle: saline 172 % of control and 187 % of control | dose: 32.0 mg/kg/injection, schedule: Q04DX005 (ip), vehicle: saline 319 % of control

Cc1ccc(/C=C/C(=O)/C=C/c2ccc(C)o2)o1
inactive: dose: 50.0 mg/kg/injection, schedule: Q04DX004 (ip), vehicle: other 101 % of control | dose: 100.0 mg/kg/injection, schedule: Q04DX004 (ip), vehicle: other 109 % of control | dose: 200.0 mg/kg/injection, schedule: Q04DX004 (ip), vehicle: other 108 % of control | dose: 400.0 mg/kg/injection, schedule: Q04DX004 (ip), vehicle: other 101 % of control | dose: 800.0 mg/kg/injection, schedule: Q04DX004 (ip), vehicle: other 95 % of control

Oc1cccc2ccccc12
inactive: [3] 100 % of control | [4] 105 % of control | [5] 98 % of control

C=C(c1ccc(OC)c(OC)c1)c1nccc2cc(OC)c(OC)cc12
inactive: dose: 100.0 mg/kg/injection, schedule: Q04DX004 (ip), vehicle: Klucel (hydroxypropylcellulose) (HPC) 102 % of control | dose: 200.0 mg/kg/injection, schedule: Q04DX004 (ip), vehicle: Klucel (hydroxypropylcellulose) (HPC) 119 % of control | dose: 400.0 mg/kg/injection, schedule: Q04DX004 (ip), vehicle: Klucel (hydroxypropylcellulose) (HPC) 98 % of control | dose: 800.0 mg/kg/injection, schedule: Q04DX004 (ip), vehicle: Klucel (hydroxypropylcellulose) (HPC) 102 % of control

OCC1OC(n2cnc3cc(Cl)c(Cl)cc32)C(O)C1O (configuration not stated)
inactive: [1] 104 % of control | [2] 109 % of control | dose: 600.0 mg/kg/injection, schedule: Q04DX004 (ip), vehicle: saline with Tween-80 107 % of control

c1ccc2c(c1)oc1cc3c(cc12)ncc1cccn13
inactive: dose: 6.25 mg/kg/injection, schedule: Q04DX004 (ip), vehicle: saline with Tween-80 95 % of control | dose: 12.5 mg/kg/injection, schedule: Q04DX004 (ip), vehicle: saline with Tween-80 90 % of control | [9] 91 % of control

O=C1CN2CCN3CC(=O)NC(=O)[C@H]3[C@H]2C(=O)N1
inactive: dose: 28.13 mg/kg/injection, schedule: Q04DX004 (ip), vehicle: saline with Tween-80 101 % of control | dose: 56.25 mg/kg/injection, schedule: Q04DX004 (ip), vehicle: saline with Tween-80 98 % of control | dose: 112.5 mg/kg/injection, schedule: Q04DX004 (ip), vehicle: saline with Tween-80 93 % of control | dose: 225.0 mg/kg/injection, schedule: Q04DX004 (ip), vehicle: saline with Tween-80 92 % of control | dose: 450.0 mg/kg/injection, schedule: Q04DX004 (ip), vehicle: saline with Tween-80 91 % of control

CS(=O)(=O)OCCCNCCCOS(C)(=O)=O
active: dose: 10.0 mg/kg/injection, schedule: Q04DX005 (ip), vehicle: saline 150 % of control | dose: 20.0 mg/kg/injection, schedule: Q04DX005 (ip), vehicle: saline 185 % of control | dose: 40.0 mg/kg/injection, schedule: Q04DX005 (ip), vehicle: saline 319 % of control | dose: 80.0 mg/kg/injection, schedule: Q04DX005 (ip), vehicle: saline 319 % of control

CC1OC(O[C@H]2/C=C/C=C/C=C/C=C/C=C/C=C/C=C/[C@H](C)[C@@H](O)[C@@H](C)[C@H](C)OC(=O)C[C@H](O)C[C@H](O)CC[C@@H](O)[C@H](O)C[C@H](O)C[C@]3(O)C[C@H](O)[C@@H](C(=O)O)[C@H](C2)O3)C(O)C(N)C1O (some centres not stated)
inactive: dose: 3.12 mg/kg/injection, schedule: Q04DX004 (ip), vehicle: suspension in saline 97 % of control | dose: 6.25 mg/kg/injection, schedule: Q04DX004 (ip), vehicle: suspension in saline 105 % of control | dose: 12.5 mg/kg/injection, schedule: Q04DX004 (ip), vehicle: suspension in saline 100 % of control and 101 % of control | [11] 100 % of control and 109 % of control | [12] 98 % of control and 107 % of control
